Measurements from ChEMBL document CHEMBL1146692, “Highly potent PDE4 inhibitors with therapeutic potential” (Bioorg Med Chem Lett, 2004).

Species: Homo sapiens
Assay: Inhibition of LPS-induced TNF-alpha production in human whole blood
Format: functional, organism-based
Details: not given

| Compound | IC50 [nM] |
| --- | --- |
| N#CC1(c2ccc(OC(F)F)c(OC3CCCC3)c2)CCN(CC(=O)O)CC1 | 840 |
| COc1ccc(C2(C#N)CCN(CC(=O)NO)CC2)cc1OCC1CC1 | 2.1 |
| CCOc1cc(C2(C#N)CCN(CC(=O)NO)CC2)ccc1OC | 5 |
| COc1ccc(C2(C#N)CCN(CC(=O)NO)CC2)cc1OC1CCCC1 | 8.9 |

Test system: Rattus norvegicus
Assay: Inhibition of LPS-induced TNF-alpha production in rats at 1 mg/kg peroral dose after 0.5 hr
Format: functional
Details: route oral

| Compound | inhibition in vivo at 1 mg/kg [%] |
| --- | --- |
| COc1ccc(C2(C#N)CCN(CC(=O)O)CC2)cc1OCC1CC1 | 12 |
| CCOc1cc(C2(C#N)CCN(CC(=O)O)CC2)ccc1OC | 0 |

Test system: Cavia porcellus
Assay: Inhibition of SRS-A-mediated bronchoconstriction and airway microvascular leakage in sensitized guinea pigs at 0.15 mg/kg 1 hr after oral dose
Format: functional
Details: Lung, read-out: ID50 (the source's name)

| Compound | ED50 [mg/kg] |
| --- | --- |
| COc1ccc(C2(C#N)CCN(CC(=O)NO)CC2)cc1OCC1CC1 | 0.3 |
| CCOc1cc(C2(C#N)CCN(CC(=O)NO)CC2)ccc1OC | 0.04 |
| COc1ccc(C2(C#N)CCN(CC(=O)NO)CC2)cc1OC1CCCC1 | 0.3 |
| COc1ccc([C@]2(C#N)CC[C@@H](C(=O)O)CC2)cc1OC1CCCC1 [CILOMILAST] | 4.5 |

Test system: Rattus norvegicus
Assay: Inhibition of gastric emptying in rats after peroral administration
Format: functional
Details: Stomach, po, read-out: ID50 (the source's name)

| Compound | ED50 [mg/kg] |
| --- | --- |
| N#CC1(c2ccc(OC(F)F)c(OC3CCCC3)c2)CCN(CC(=O)O)CC1 | 4.7 |
| COc1ccc(C2(C#N)CCN(CC(=O)NO)CC2)cc1OCC1CC1 | 0.3 |
| CCOc1cc(C2(C#N)CCN(CC(=O)NO)CC2)ccc1OC | 0.7 |
| COc1ccc(C2(C#N)CCN(CC(=O)NO)CC2)cc1OC1CCCC1 | 0.3 |
| COc1ccc([C@]2(C#N)CC[C@@H](C(=O)O)CC2)cc1OC1CCCC1 [CILOMILAST] | 5.7 |

Target: Phosphodiesterase 4 (Homo sapiens, UniProt P27815+Q08499+Q07343+Q08493)
Assay: Inhibition of phosphodiesterase 4 (PDE4) prepared from human U937 cells
Format: cell-based
Details: u-937

| Compound | IC50 [nM] |
| --- | --- |
| COc1ccc(C2(C#N)CCN(CC(=O)NO)CC2)cc1OC1CCC1 | 0.18 |
| CCOc1ccc(C2(C#N)CCN(CC(=O)O)CC2)cc1OC1CCCC1 | 2500 |
| CC(C)Oc1ccc(C2(C#N)CCN(CC(=O)NO)CC2)cc1OC1CCCC1 | > 30 |
| COc1ccc(C2(C#N)CCN([C@H](C)C(=O)NO)CC2)cc1OC1CCCC1 | 0.91 |
| COc1ccc(C2(C#N)CCN([C@H](C)C(=O)O)CC2)cc1OC1CCCC1 | > 300 |
| COc1ccc(C2(C#N)CCN(CC(=O)O)CC2)cc1OC1CCC1 | > 100 |
| COc1ccc(C2(C#N)CCN(CC(=O)O)CC2)cc1OC1CCCC1 | 66 |
| CCOc1ccc(C2(C#N)CCN(CC(=O)NO)CC2)cc1OC1CCCC1 | 6.2 |
| CC(C)Oc1ccc(C2(C#N)CCN(CC(=O)O)CC2)cc1OC1CCCC1 | > 1000 |
| N#CC1(c2ccc(OC(F)F)c(OC3CCCC3)c2)CCN(CC(=O)O)CC1 | 65 |
| COc1ccc(C2(C#N)CCN(CC(=O)NO)CC2)cc1OC(C)C | 1 |
| COc1ccc(C2(C#N)CCN(C(C)(C)C(=O)O)CC2)cc1OC1CCCC1 | > 1000 |
| COc1ccc(C2(C#N)CCN(C3(C(=O)O)CC3)CC2)cc1OC1CCCC1 | > 1000 |
| COc1ccc(C2(C#N)CCN([C@@H](C)C(=O)NO)CC2)cc1OC1CCCC1 | 5.9 |
| COc1ccc(C2(C#N)CCN([C@@H](C)C(=O)O)CC2)cc1OC1CCCC1 | > 300 |
| COc1ccc(C2(C#N)CCN(CC(=O)O)CC2)cc1OCC1CC1 | > 100 |
| COc1ccc(C2(C#N)CCN(CC(=O)O)CC2)cc1OC1Cc2ccccc2C1 | 67 |
| COc1ccc(C2(C#N)CCN(C3(C(=O)NO)CC3)CC2)cc1OC1CCCC1 | 4.6 |
| COc1ccc(C2(C#N)CCN(CC(=O)NO)CC2)cc1OCC1CC1 | 0.29 |
| CCOc1cc(C2(C#N)CCN(CC(=O)NO)CC2)ccc1OC | 0.52 |
| COc1ccc(C2(C#N)CCN(CC(=O)O)CC2)cc1OC(C)C | > 100 |
| N#CC1(c2ccc(OC(F)F)c(OC3CCCC3)c2)CCN(CC(=O)NO)CC1 | 0.051 |
| COc1ccc(C2(C#N)CCN(CC(=O)O)CC2)cc1OC | > 100 |
| COc1ccc(C2(C#N)CCN(C(C)(C)C(=O)NO)CC2)cc1OC1CCCC1 | 34 |
| COc1ccc(C2(C#N)CCN(CC(=O)NO)CC2)cc1OC | 4.7 |
| COc1ccc(C2(C#N)CCN(CC(=O)NO)CC2)cc1OC1CCCC1 | 0.08 |
| CCOc1cc(C2(C#N)CCN(CC(=O)O)CC2)ccc1OC | > 100 |

Test system: Rattus norvegicus
Assay: Inhibition of LPS-induced TNF-alpha production in rats 0.5 hr after peroral administration
Format: functional
Details: po, read-out: ID50 (the source's name)

| Compound | ED50 [mg/kg] |
| --- | --- |
| COc1ccc(C2(C#N)CCN(CC(=O)NO)CC2)cc1OC1CCC1 | 0.03 |
| CCOc1ccc(C2(C#N)CCN(CC(=O)NO)CC2)cc1OC1CCCC1 | 0.7 |
| N#CC1(c2ccc(OC(F)F)c(OC3CCCC3)c2)CCN(CC(=O)O)CC1 | 1.1 |
| COc1ccc(C2(C#N)CCN(CC(=O)NO)CC2)cc1OC(C)C | 0.09 |
| COc1ccc(C2(C#N)CCN(C3(C(=O)NO)CC3)CC2)cc1OC1CCCC1 | 2 |
| COc1ccc(C2(C#N)CCN(CC(=O)NO)CC2)cc1OCC1CC1 | 0.03 |
| CCOc1cc(C2(C#N)CCN(CC(=O)NO)CC2)ccc1OC | 0.04 |
| N#CC1(c2ccc(OC(F)F)c(OC3CCCC3)c2)CCN(CC(=O)NO)CC1 | 0.02 |
| COc1ccc(C2(C#N)CCN(CC(=O)NO)CC2)cc1OC | 0.23 |
| COc1ccc(C2(C#N)CCN(CC(=O)NO)CC2)cc1OC1CCCC1 | 0.04 |
| COc1ccc([C@]2(C#N)CC[C@@H](C(=O)O)CC2)cc1OC1CCCC1 [CILOMILAST] | 1.7 |

Test system: Cavia porcellus
Assay: Inhibition of SRS-A-mediated bronchoconstriction and airway microvascular leakage in sensitized guinea pigs at 0.5 mg/kg 1 hr after oral dose
Format: functional
Details: Lung, read-out: ID50 (the source's name)

| Compound | ED50 [mg/kg] |
| --- | --- |
| N#CC1(c2ccc(OC(F)F)c(OC3CCCC3)c2)CCN(CC(=O)O)CC1 | 4.2 |

Test system: Rattus norvegicus
Assay: Inhibition of LPS-induced TNF-alpha production in rats at 3 mg/kg peroral dose after 0.5 hr
Format: functional
Details: route oral

| Compound | inhibition in vivo at 3 mg/kg [%] |
| --- | --- |
| COc1ccc(C2(C#N)CCN([C@H](C)C(=O)NO)CC2)cc1OC1CCCC1 | 26 |
| COc1ccc(C2(C#N)CCN(CC(=O)O)CC2)cc1OC1CCCC1 | 74 |
| COc1ccc(C2(C#N)CCN([C@@H](C)C(=O)NO)CC2)cc1OC1CCCC1 | 49 |
| COc1ccc(C2(C#N)CCN(CC(=O)O)CC2)cc1OC1Cc2ccccc2C1 | 29 |
